Experimental data taken from the supplement of paper PMC13380429.

Experiments:
Vero E6 [1] = test: relative viability EC50 (midpoint between 100% and the lowest measured viability); higher = less toxic; settings: 72 h
Caco-2 [2] = test: as above; settings: 72 h
U2OS [3] = test: as above; settings: 72 h
HepG2 [4] = test: as above; settings: 72 h
Calu-3 [5] = test: as above; settings: 72 h
Vero E6 [6] = test: cell viability relative to DMSO; higher = less toxic; settings: 72 h
Caco-2 [7] = test: as above; settings: 72 h
U2OS [8] = test: as above; settings: 72 h
HepG2 [9] = test: as above; settings: 72 h
Calu-3 [10] = test: as above; settings: 72 h
[11] = test system: A549-ACE2 infected with SARS-CoV-2; test: SARS-CoV-2 infection rate relative to DMSO; higher = more infection; settings: 24 h
[12] = test system: A549-ACE2 infected with SARS-CoV-2; test: morphology score (similarity to uninfected cells); higher = more like uninfected cells; settings: 24 h
Vero E6 [13] = test: drug sensitivity score (DSS) for viability; higher = more toxic; extreme values may be limits of the assay; settings: 72 h
Caco-2 [14] = test: as above; settings: 72 h
U2OS [15] = test: as above; settings: 72 h
HepG2 [16] = test: as above; settings: 72 h
Calu-3 [17] = test: as above; settings: 72 h
[18] = test system: A549-ACE2 infected with SARS-CoV-2; test: cell count relative to DMSO; higher = less toxic; settings: 24 h
A549-ACE2 = test: drug-induced phospholipidosis relative to tamoxifen; higher = more phospholipidosis

CC(C)(C)c1ccc(-c2nc3ccccc3[nH]2)cc1 [ZLN005]
Settings | drug sensitivity score | relative viability EC50 [µM]
Caco-2 [2] | – | 1.4
Caco-2 [14] | 4.9 | –
Calu-3 [5] | – | 1.6
Calu-3 [17] | 4.6 | –
HepG2 [4] | – | > 10
HepG2 [16] | 1.3 | –
U2OS [3] | – | > 10
U2OS [15] | 1.3 | –
Vero E6 [1] | – | > 10
Vero E6 [13] | 0.6 | –

Settings | SARS-CoV-2 infection rate, [11] [%] | cell count, [18] [%] | cell viability, Caco-2 [7] [%] | cell viability, Calu-3 [10] [%] | cell viability, HepG2 [9] [%] | cell viability, U2OS [8] [%] | cell viability, Vero E6 [6] [%] | morphology score, [12]
1 nM | – | – | 91.8 | 87.7 | 94.6 | 101 | 92.8 | –
10 nM | – | – | 99.8 | 94.1 | 98.2 | 94.2 | 98.6 | –
100 nM | – | – | 97.1 | 105 | 96.2 | 97.7 | 94.1 | –
0.3 µM | 99 | 98 | – | – | – | – | – | 0.14
1000 nM | – | – | 84 | 88.1 | 96.6 | 90.7 | 92.7 | –
3 µM | 87 | 113 | – | – | – | – | – | 0.37
10000 nM | – | – | 49.4 | 49.4 | 77.4 | 78.4 | 81.6 | –
10 µM | 57 | 115 | – | – | – | – | – | 0.7
30 µM | 32 | 110 | – | – | – | – | – | 0.77

drug-induced phospholipidosis [%], A549-ACE2
Settings | 0.3 µM | 0.833333 µM | 3.33333 µM | 6.66667 µM | 10 µM | 30 µM
24 h | 3.54 | -4.68 | -5.18 | -7.34 | -8.03 | -10.2
48 h | 4.21 | -3.33 | -5.71 | -7.4 | -10.6 | -12.3
72 h | 2.86 | -4.87 | -1.84 | -5.31 | -5.63 | -6.24

COc1cc(/C=C2\CCC/C(=C\c3ccc(O)c(OC)c3)C2=O)ccc1O [cyclovalone]
Settings | drug sensitivity score | relative viability EC50 [µM]
Caco-2 [2] | – | > 10
Caco-2 [14] | 0 | –
Calu-3 [17] | 2.2 | –
HepG2 [4] | – | > 10
HepG2 [16] | 0 | –
U2OS [3] | – | 0.293
U2OS [15] | 18.4 | –
Vero E6 [1] | – | > 10
Vero E6 [13] | 0 | –

Settings | SARS-CoV-2 infection rate, [11] [%] | cell count, [18] [%] | cell viability, Caco-2 [7] [%] | cell viability, Calu-3 [10] [%] | cell viability, HepG2 [9] [%] | cell viability, U2OS [8] [%] | cell viability, Vero E6 [6] [%] | morphology score, [12]
1 nM | – | – | 93 | 93 | 88.9 | 96.1 | 103 | –
10 nM | – | – | 102 | 100 | 95.2 | 101 | 91.9 | –
100 nM | – | – | 100 | 105 | 99 | 97 | 99.1 | –
0.3 µM | 96 | 99 | – | – | – | – | – | 0.08
1000 nM | – | – | 96.1 | 98.9 | 92.8 | -0.3 | 84.1 | –
3 µM | 103 | 97 | – | – | – | – | – | 0.06
10000 nM | – | – | 101 | 59.3 | 90.4 | 22.4 | 108 | –
10 µM | 98 | 80 | – | – | – | – | – | 0.05
30 µM | 21 | 31 | – | – | – | – | – | 0.46

drug-induced phospholipidosis [%], A549-ACE2
Settings | 0.3 µM | 0.833333 µM | 3.33333 µM | 6.66667 µM | 10 µM | 30 µM
24 h | 3.68 | 3.84 | 17.9 | 21.4 | 23.9 | 23.4
48 h | 2.15 | 1.38 | 12.4 | – | – | –
72 h | 2.61 | -0.476 | 7.23 | – | – | –

C[N+]1([O-])[C@@H]2C[C@@H](OC(=O)[C@H](CO)c3ccccc3)C[C@H]1[C@@H]1O[C@@H]12 (stereo partly drawn) [scopolamine-N-oxide]
Settings | drug sensitivity score | relative viability EC50 [µM]
Caco-2 [2] | – | > 10
Caco-2 [14] | 0 | –
Calu-3 [5] | – | > 10
Calu-3 [17] | 0 | –
HepG2 [4] | – | > 10
HepG2 [16] | 0 | –
U2OS [3] | – | > 10
U2OS [15] | 0 | –
Vero E6 [1] | – | > 10
Vero E6 [13] | 0 | –

cell viability [%]
Settings | Caco-2 [7] | Calu-3 [10] | HepG2 [9] | U2OS [8] | Vero E6 [6]
1 nM | 88.4 | 99.7 | 105 | 93.9 | 93.1
10 nM | 97.6 | 95.4 | 93.1 | 96.5 | 83.9
100 nM | 85.9 | 100 | 107 | 93.9 | 104
1000 nM | 96.6 | 102 | 107 | 98.5 | 97.4
10000 nM | 102 | 94.5 | 108 | 104 | 107

COC1=C[C@@H]2[C@@H]3Cc4ccc(OC)c(O)c4[C@]2(CCN3C)CC1=O [sinomenine]
Settings | drug sensitivity score | relative viability EC50 [µM]
Caco-2 [2] | – | > 10
Caco-2 [14] | 0 | –
Calu-3 [5] | – | > 10
Calu-3 [17] | 0 | –
HepG2 [4] | – | > 10
HepG2 [16] | 0.4 | –
U2OS [3] | – | > 10
U2OS [15] | 0 | –
Vero E6 [1] | – | > 10
Vero E6 [13] | 0 | –

cell viability [%]
Settings | Caco-2 [7] | Calu-3 [10] | HepG2 [9] | U2OS [8] | Vero E6 [6]
1 nM | 107 | 100 | 109 | 94.1 | 105
10 nM | 96.9 | 95.4 | 104 | 98.5 | 97.7
100 nM | 90.5 | 100 | 99.2 | 98.8 | 103
1000 nM | 98.8 | 92.4 | 88.5 | 104 | 97
10000 nM | 104 | 95.8 | 96.3 | 94.3 | 105
